Results on three compounds are retold here after PubChem BioAssay AID1259407 (Chemical Carcinogenesis Research Information System (CCRIS), 2018).

Active and inactive are the calls of the source. The rule behind the calls is not given here.

In this data set the test system is CCRIS mutagenicity, Ames/micronucleus/aberration tests. In words: CCRIS mutagenicity studies.
[1] abbreviates: Test System: AMES SALMONELLA TYPHIMURIUM, Strain/Indicator: TA98, Metabolic Activation: HAMSTER, LIVER, S-9, AROCLOR 1254 (10%), Method: PREINCUBATION
Where [2] appears, read: Test System: AMES SALMONELLA TYPHIMURIUM, Strain/Indicator: TA98, Metabolic Activation: NONE, Method: PREINCUBATION
Setting [3] is: Test System: AMES SALMONELLA TYPHIMURIUM, Strain/Indicator: TA98, Metabolic Activation: RAT, LIVER, S-9, AROCLOR 1254 (10%), Method: PREINCUBATION
Where [4] appears, read: Test System: AMES SALMONELLA TYPHIMURIUM, Strain/Indicator: TA100, Metabolic Activation: HAMSTER, LIVER, S-9, AROCLOR 1254 (10%), Method: PREINCUBATION
Where [5] appears, read: Test System: AMES SALMONELLA TYPHIMURIUM, Strain/Indicator: TA100, Metabolic Activation: NONE, Method: PREINCUBATION
[6] abbreviates: Test System: AMES SALMONELLA TYPHIMURIUM, Strain/Indicator: TA100, Metabolic Activation: RAT, LIVER, S-9, AROCLOR 1254 (10%), Method: PREINCUBATION
The mark [7] stands for this setting: Test System: AMES SALMONELLA TYPHIMURIUM, Strain/Indicator: TA1535, Metabolic Activation: NONE, Method: PREINCUBATION

`NCCNCCN`: the mutagenic call by setting is: under setting [1], “inactive; negative”; under setting [2], “inactive; negative”; (Test System: AMES SALMONELLA TYPHIMURIUM, Strain/Indicator: TA98, Metabolic Activation: NONE, Method: STANDARD PLATE) “inactive; negative”; (Test System: AMES SALMONELLA TYPHIMURIUM, Strain/Indicator: TA98, Metabolic Activation: RAT LIVER S-9, PHENOBARBITAL AND BETA-NAPHTHOFLAVONE, Method: PREINCUBATION) “inactive; negative”; under setting [3], “inactive; negative”; (Test System: AMES SALMONELLA TYPHIMURIUM, Strain/Indicator: TA98, Metabolic Activation: RAT, LIVER, S-9, AROCLOR 1254, Method: STANDARD PLATE) “inactive; negative”. Further, the mutagenic call is, setting by setting: (Test System: AMES SALMONELLA TYPHIMURIUM, Strain/Indicator: TA98, Metabolic Activation: RAT, LIVER, S-9, PCB, Method: PREINCUBATION) “inactive; negative”; under setting [4], “inactive; negative”; under setting [5], “inactive; negative”; (Test System: AMES SALMONELLA TYPHIMURIUM, Strain/Indicator: TA100, Metabolic Activation: NONE, Method: STANDARD PLATE) “inactive; negative”; (Test System: AMES SALMONELLA TYPHIMURIUM, Strain/Indicator: TA100, Metabolic Activation: RAT LIVER S-9, PHENOBARBITAL AND BETA-NAPHTHOFLAVONE, Method: PREINCUBATION) “inactive; negative”; under setting [6], “inactive; negative”. In addition, the mutagenic call (Test System: AMES SALMONELLA TYPHIMURIUM, Strain/Indicator: TA100, Metabolic Activation: RAT, LIVER, S-9, AROCLOR 1254, Method: STANDARD PLATE) is “inactive; negative”; the mutagenic call (Test System: AMES SALMONELLA TYPHIMURIUM, Strain/Indicator: TA100, Metabolic Activation: RAT, LIVER, S-9, PCB, Method: PREINCUBATION) is “inactive; negative”; the mutagenic call (Test System: AMES SALMONELLA TYPHIMURIUM, Strain/Indicator: TA1535, Metabolic Activation: HAMSTER, LIVER, S-9, AROCLOR 1254 (10%), Method: PREINCUBATION) was “inactive; negative”; the mutagenic call under setting [7] is “inactive; negative”; the mutagenic call (Test System: AMES SALMONELLA TYPHIMURIUM, Strain/Indicator: TA1535, Metabolic Activation: NONE, Method: STANDARD PLATE) was “inactive; negative”; the mutagenic call (Test System: AMES SALMONELLA TYPHIMURIUM, Strain/Indicator: TA1535, Metabolic Activation: RAT LIVER S-9, PHENOBARBITAL AND BETA-NAPHTHOFLAVONE, Method: PREINCUBATION) was “inactive; negative”. For the same compound, the mutagenic call runs as follows: (Test System: AMES SALMONELLA TYPHIMURIUM, Strain/Indicator: TA1535, Metabolic Activation: RAT, LIVER, S-9, AROCLOR 1254 (10%), Method: PREINCUBATION) “inactive; negative”; (Test System: AMES SALMONELLA TYPHIMURIUM, Strain/Indicator: TA1535, Metabolic Activation: RAT, LIVER, S-9, AROCLOR 1254, Method: STANDARD PLATE) “inactive; negative”; (Test System: AMES SALMONELLA TYPHIMURIUM, Strain/Indicator: TA1537, Metabolic Activation: HAMSTER, LIVER, S-9, AROCLOR 1254 (10%), Method: PREINCUBATION) “inactive; negative”; (Test System: AMES SALMONELLA TYPHIMURIUM, Strain/Indicator: TA1537, Metabolic Activation: NONE, Method: PREINCUBATION) “inactive; negative”; (Test System: AMES SALMONELLA TYPHIMURIUM, Strain/Indicator: TA1537, Metabolic Activation: NONE, Method: STANDARD PLATE) “inactive; negative”; (Test System: AMES SALMONELLA TYPHIMURIUM, Strain/Indicator: TA1537, Metabolic Activation: RAT LIVER S-9, PHENOBARBITAL AND BETA-NAPHTHOFLAVONE, Method: PREINCUBATION) “inactive; negative”. For the same compound, the mutagenic call (Test System: AMES SALMONELLA TYPHIMURIUM, Strain/Indicator: TA1537, Metabolic Activation: RAT, LIVER, S-9, AROCLOR 1254 (10%), Method: PREINCUBATION) is “inactive; negative”; the mutagenic call (Test System: AMES SALMONELLA TYPHIMURIUM, Strain/Indicator: TA1537, Metabolic Activation: RAT, LIVER, S-9, AROCLOR 1254, Method: STANDARD PLATE) was “inactive; negative”; the mutagenic call (Test System: AMES SALMONELLA TYPHIMURIUM, Strain/Indicator: TA1538, Metabolic Activation: NONE, Method: STANDARD PLATE) was “inactive; negative”; the mutagenic call (Test System: AMES SALMONELLA TYPHIMURIUM, Strain/Indicator: TA1538, Metabolic Activation: RAT, LIVER, S-9, AROCLOR 1254, Method: STANDARD PLATE) was “inactive; negative”; the mutagenic call (Test System: CHINESE HAMSTER OVARY, Strain/Indicator: CHO (HGPRT)/6-THIOGUANINE, Metabolic Activation: NONE) was “inactive; negative”; the mutagenic call (Test System: CHINESE HAMSTER OVARY, Strain/Indicator: CHO (HGPRT)/6-THIOGUANINE, Metabolic Activation: RAT, LIVER, S-9, AROCLOR 1254) is “inactive; negative”. Also, the mutagenic call runs as follows: (Test System: E.COLI, Strain/Indicator: WP2UVRA/PKM101, Metabolic Activation: NONE, Method: PREINCUBATION) “inactive; negative”; (Test System: E.COLI, Strain/Indicator: WP2UVRA/PKM101, Metabolic Activation: RAT LIVER S-9, PHENOBARBITAL AND BETA-NAPHTHOFLAVONE, Method: PREINCUBATION) “inactive; negative”; (Test System: UDS RAT HEPATOCYTES, Strain/Indicator: THY INCORP, Metabolic Activation: NONE, Method: SCINTILLATION SPECTROMETRY) “inactive; negative”.

For `S=c1[nH]c2ccccc2[nH]1`, the mutagenic call was “inactive; negative” (Test System: AMES SALMONELLA TYPHIMURIUM, Strain/Indicator: TA97, Metabolic Activation: HAMSTER, LIVER, S-9, AROCLOR 1254 (10%), Method: PREINCUBATION); “inactive; negative” (Test System: AMES SALMONELLA TYPHIMURIUM, Strain/Indicator: TA97, Metabolic Activation: HAMSTER, LIVER, S-9, AROCLOR 1254 (30%), Method: PREINCUBATION); “inactive; negative” (Test System: AMES SALMONELLA TYPHIMURIUM, Strain/Indicator: TA97, Metabolic Activation: NONE, Method: PREINCUBATION); “inactive; negative” (Test System: AMES SALMONELLA TYPHIMURIUM, Strain/Indicator: TA97, Metabolic Activation: RAT, LIVER, S-9, AROCLOR 1254 (10%), Method: PREINCUBATION); “inactive; negative” (Test System: AMES SALMONELLA TYPHIMURIUM, Strain/Indicator: TA97, Metabolic Activation: RAT, LIVER, S-9, AROCLOR 1254 (30%), Method: PREINCUBATION); “inactive; negative” under setting [1]. For the same compound, the mutagenic call by setting is: (Test System: AMES SALMONELLA TYPHIMURIUM, Strain/Indicator: TA98, Metabolic Activation: HAMSTER, LIVER, S-9, AROCLOR 1254 (30%), Method: PREINCUBATION) “inactive; negative”; under setting [2], “inactive; negative”; under setting [3], “inactive; negative”; (Test System: AMES SALMONELLA TYPHIMURIUM, Strain/Indicator: TA98, Metabolic Activation: RAT, LIVER, S-9, AROCLOR 1254 (30%), Method: PREINCUBATION) “inactive; negative”; under setting [4], “inactive; negative”; (Test System: AMES SALMONELLA TYPHIMURIUM, Strain/Indicator: TA100, Metabolic Activation: HAMSTER, LIVER, S-9, AROCLOR 1254 (30%), Method: PREINCUBATION) “inactive; negative”. Besides, the mutagenic call runs as follows: under setting [5], “inactive; negative”; under setting [6], “inactive; negative”; (Test System: AMES SALMONELLA TYPHIMURIUM, Strain/Indicator: TA100, Metabolic Activation: RAT, LIVER, S-9, AROCLOR 1254 (30%), Method: PREINCUBATION) “inactive; negative”; (Test System: AMES SALMONELLA TYPHIMURIUM, Strain/Indicator: TA1535, Metabolic Activation: HAMSTER, LIVER, S-9, AROCLOR 1254 (10 OR 30%), Method: PREINCUBATION) “inactive; negative”; under setting [7], “inactive; negative”; (Test System: AMES SALMONELLA TYPHIMURIUM, Strain/Indicator: TA1535, Metabolic Activation: RAT, LIVER, S-9, AROCLOR 1254 (10 OR 30%), Method: PREINCUBATION) “inactive; negative”.

For the compound `Cc1ncc([N+](=O)[O-])n1CC(O)CCl` (configuration not stated), the mutagenic call (End Point: IN VITRO CHROMOSOMAL ABERRATIONS, Test System: HUMAN LYMPHOCYTES, Metabolic Activation: NONE) is “active; positive (structural changes)”.
